In general, EC50 refers to the concentration giving half of the maximal effect.

This passage reports EC50 results from patent US9957267B2, “Somatostatin modulators and uses thereof” (Crinetics Pharmaceuticals, Inc., priority 2015, dated 2018).

Common to all, as to assay type: cell-based
The target of one experiment is T1, SSTR5 (Homo sapiens, UniProt P35346).
T1 construct: expressed in transfected cells
The experiment in a line: cAMP functional agonist assay, CHO cells expressing SSTR5. The note with it: CHO cells stably expressing SSTR5, cAMP. Here is the method: (§1) Chinese hamster ovary (CHO) cells stably expressing one of the six human or rodent somatostatin receptor subtypes are grown to 85-100% confluence on standard tissue culture dishes in F12-Ham's growth media (Hyclone) with following additives: 10% donor calf serum (Hyclone), 200 U/mL penicillin (Hyclone), 200 μg/mL streptomycin (Hyclone), 20 mM HEPES (Hyclone), 200 μg/mL hygromycin Hyclone.
(§2) General overview: All SSTR subtypes are Gi coupled G-protein coupled receptors (GPCRs) that lead to decreases in intracellular cyclic AMP (cAMP) when activated by an agonist. Therefore, measurement of intracellular cAMP levels can be used to assess whether compounds of the invention are agonists of SSTR subtypes (John Kelly, Troy Stevens, W. Joseph Thompson, and Roland Seifert, Current Protocols in Pharmacology, 2005, 2.2.1-2.2). One example of an intracellular cAMP assay is described below.

A further experiment concerns the target SSTR3 (UniProt P32745). Briefly: cAMP functional agonist assay, CHO cells expressing SSTR3. The note with it: CHO cells stably expressing SSTR3, cAMP. Here is the method: as §1, §2
The next experiment has as its target T2, SSTR4 (Homo sapiens, UniProt P31391).
T2 construct: expressed in transfected cells
Briefly: cAMP functional agonist assay, CHO cells expressing SSTR4. Here is the method: as §1
(§3) General overview: All SSTR subtypes are Gi coupled G-protein coupled receptors (GPCRs) that lead to decreases in intracellular cyclic AMP (cAMP) when activated by an agonist. […] One example of an intracellular cAMP assay is described below.

The next experiment deals with T3, SSTR1 (Homo sapiens, UniProt P30872).
T3 construct: expressed in transfected cells
Briefly: cAMP functional agonist assay, CHO cells expressing SSTR1. Here is the method: as §1, §3

Setting [1] is: CHO cells stably expressing SSTR1, cAMP, read-out: SSTR1 EC50.

Like-named read-outs stand apart in the source and are kept apart here. A value given as a limit tells only on which side of the number the result lay.

T2 sequence (P31391 whole entry): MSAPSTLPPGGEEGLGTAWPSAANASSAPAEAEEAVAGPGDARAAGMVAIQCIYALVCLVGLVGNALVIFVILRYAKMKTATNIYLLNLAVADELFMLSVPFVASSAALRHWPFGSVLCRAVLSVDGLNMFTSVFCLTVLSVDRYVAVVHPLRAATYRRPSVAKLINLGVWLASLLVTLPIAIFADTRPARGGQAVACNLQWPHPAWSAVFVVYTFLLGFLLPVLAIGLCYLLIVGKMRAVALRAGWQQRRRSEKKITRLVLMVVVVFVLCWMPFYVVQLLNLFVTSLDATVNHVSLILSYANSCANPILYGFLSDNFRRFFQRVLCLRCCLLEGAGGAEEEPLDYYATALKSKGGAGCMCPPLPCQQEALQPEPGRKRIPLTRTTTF
T3 sequence (P30872 whole entry): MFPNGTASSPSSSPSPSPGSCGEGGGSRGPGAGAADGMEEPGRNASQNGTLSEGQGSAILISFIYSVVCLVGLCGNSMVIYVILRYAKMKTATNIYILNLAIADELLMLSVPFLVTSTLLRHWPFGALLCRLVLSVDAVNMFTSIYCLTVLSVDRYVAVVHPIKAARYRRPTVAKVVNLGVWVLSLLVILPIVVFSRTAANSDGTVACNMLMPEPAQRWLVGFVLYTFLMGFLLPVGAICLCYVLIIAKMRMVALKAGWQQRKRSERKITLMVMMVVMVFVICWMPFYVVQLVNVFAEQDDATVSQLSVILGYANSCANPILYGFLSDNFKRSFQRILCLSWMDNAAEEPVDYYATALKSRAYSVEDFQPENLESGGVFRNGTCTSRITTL
Sequence of SSTR3 (P32745 whole entry): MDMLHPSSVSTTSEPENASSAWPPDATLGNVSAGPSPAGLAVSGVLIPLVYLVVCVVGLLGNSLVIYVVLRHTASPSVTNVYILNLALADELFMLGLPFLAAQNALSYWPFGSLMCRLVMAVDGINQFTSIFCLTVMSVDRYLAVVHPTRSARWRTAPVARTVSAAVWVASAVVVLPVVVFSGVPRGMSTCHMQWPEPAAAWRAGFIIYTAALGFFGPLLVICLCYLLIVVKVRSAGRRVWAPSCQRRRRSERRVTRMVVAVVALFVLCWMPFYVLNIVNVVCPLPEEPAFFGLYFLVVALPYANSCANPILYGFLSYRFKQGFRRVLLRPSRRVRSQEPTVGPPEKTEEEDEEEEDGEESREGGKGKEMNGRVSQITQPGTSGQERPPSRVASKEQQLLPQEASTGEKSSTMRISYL
T1 sequence (P35346 whole entry): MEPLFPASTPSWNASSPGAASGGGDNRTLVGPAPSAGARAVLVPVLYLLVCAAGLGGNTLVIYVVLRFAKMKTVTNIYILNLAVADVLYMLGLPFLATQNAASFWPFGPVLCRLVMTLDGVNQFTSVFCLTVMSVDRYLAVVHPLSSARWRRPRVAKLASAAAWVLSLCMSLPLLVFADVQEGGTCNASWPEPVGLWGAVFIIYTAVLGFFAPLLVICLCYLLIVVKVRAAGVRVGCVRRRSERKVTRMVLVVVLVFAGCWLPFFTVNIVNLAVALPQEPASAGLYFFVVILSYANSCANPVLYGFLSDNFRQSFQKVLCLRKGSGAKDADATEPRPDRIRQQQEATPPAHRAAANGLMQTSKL

Take `Cc1cc(C)cc(-c2cnc3ncn(-c4cccc(O)c4)c(=O)c3c2CN(C)CCN)c1` [Compound A-1, 5-{[(2-aminoethyl)(methyl)amino]methyl}-6-(3,5-dimethylphenyl)-3-(3-hydroxyphenyl)-3H,4H-pyrido[2,3-d]pyrimidin-4-one]: the EC50 on SSTR5 is greater than 10000 nM; on SSTR3, 100 to 10000 nM; on SSTR4 (CHO cells stably expressing SSTR4, cAMP, read-out: SSTR4 EC50) it was less than 100 nM; at SSTR1, greater than 10000 nM.

For `CCN(CCN)Cc1c(-c2cc(C)cc(C)c2)cnc2ncn(-c3cccc(O)c3)c(=O)c12` [Compound A-2, 5-{[(2-aminoethyl)(ethyl)amino]methyl}-6-(3,5-dimethylphenyl)-3-(3-hydroxyphenyl)-3H,4H-pyrido[2,3-d]pyrimidin-4-one], the EC50 on SSTR5 was 100 to 10000 nM; on SSTR3 it was 100 to 10000 nM; at SSTR4, less than 100 nM; on SSTR1, greater than 10000 nM.

In the case of `Cc1cc(C)cc(-c2cnc3ncn(-c4cccc(O)c4)c(=O)c3c2CN(C)C(C)CN)c1` (stereo not drawn) [Compound A-7, 5-{[(1-aminopropan-2-yl)(methyl)amino]methyl}-6-(3,5-dimethylphenyl)-3-(3-hydroxyphenyl)-3H,4H-pyrido[2,3-d]pyrimidin-4-one], the EC50 at SSTR3 is 100 to 10000 nM; on SSTR4, less than 100 nM.

For `Cc1cc(C)cc(-c2cnc3ncn(-c4cccc(O)c4)c(=O)c3c2CN(C)C[C@H](C)N)c1` [Compound A-8, 5-({[(2S)-2-aminopropyl](methyl)amino}methyl)-6-(3,5-dimethylphenyl)-3-(3-hydroxyphenyl)-3H,4H-pyrido[2,3-d]pyrimidin-4-one], the EC50 is greater than 10000 nM on SSTR5, 100 to 10000 nM at SSTR3 and less than 100 nM on SSTR4.

For the compound `Cc1cc(C)cc(-c2cnc3ncn(-c4cccc(O)c4)c(=O)c3c2CN2CCC(N)C2)c1` (stereo not drawn) [Compound A-10, 5-[(3-aminopyrrolidin-1-yl)methyl]-6-(3,5-dimethylphenyl)-3-(3-hydroxyphenyl)-3H,4H-pyrido[2,3-d]pyrimidin-4-one], the EC50 is greater than 10000 nM on SSTR3 and 100 to 10000 nM on SSTR4.

As to `Cc1cc(C)cc(-c2cnc3ncn(-c4cccc(O)c4)c(=O)c3c2CN2CCCC2CN)c1` (stereo not drawn) [Compound A-11, 5-{[2-(aminomethyl)pyrrolidin-1-yl]methyl}-6-(3,5-dimethylphenyl)-3-(3-hydroxyphenyl)-3H,4H-pyrido[2,3-d]pyrimidin-4-one], the EC50 on SSTR4 was less than 100 nM; at SSTR1 it was 100 to 10000 nM.

On to `Cc1cc(C)cc(-c2cnc3ncn(-c4cccc(O)c4)c(=O)c3c2CN(C)CC2(N)CCCC2)c1` [Compound A-12, 5-({[(1-aminocyclopentyl)methyl](methyl)amino}methyl)-6-(3,5-dimethylphenyl)-3-(3-hydroxyphenyl)-3H,4H-pyrido[2,3-d]pyrimidin-4-one], for which the EC50 on SSTR5 is 100 to 10000 nM; on SSTR3, 100 to 10000 nM; at SSTR4, less than 100 nM.

As to `Cc1cc(C)cc(-c2cnc3ncn(-c4cccc(O)c4)c(=O)c3c2CN(C)CC2CCCCN2)c1` (stereo not drawn) [Compound A-13, 6-(3,5-dimethylphenyl)-3-(3-hydroxyphenyl)-5-{[methyl(piperidin-2-ylmethyl)amino]methyl}-3H,4H-pyrido[2,3-d]pyrimidin-4-one], the EC50 was greater than 10000 nM at SSTR5, less than 100 nM on SSTR3, less than 100 nM on SSTR4 and 100 to 10000 nM on SSTR1.

Consider `Cc1cc(C)cc(-c2cnc3ncn(-c4cccc(O)c4)c(=O)c3c2CN(C)C[C@H]2CCCCN2)c1` [Compound A-14, 6-(3,5-dimethylphenyl)-3-(3-hydroxyphenyl)-5-({methyl[(2R)-piperidin-2-ylmethyl]amino}methyl)-3H,4H-pyrido[2,3-d]pyrimidin-4-one], for which the EC50 at SSTR5 is greater than 10000 nM; on SSTR3, less than 100 nM; at SSTR4, less than 100 nM; at SSTR1 it was greater than 10000 nM.

With `Cc1cc(C)cc(-c2cnc3ncn(-c4cccc(O)c4)c(=O)c3c2CN(C)C[C@@H]2CCCCN2)c1` [Compound A-15, 6-(3,5-dimethylphenyl)-3-(3-hydroxyphenyl)-5-({methyl[(2S)-piperidin-2-ylmethyl]amino}methyl)-3H,4H-pyrido[2,3-d]pyrimidin-4-one], the EC50 on SSTR5 was 100 to 10000 nM; on SSTR3, less than 100 nM; at SSTR4 it was less than 100 nM; at SSTR1, 100 to 10000 nM.

For `Cc1cc(C)cc(-c2cnc3ncn(-c4cccc(O)c4)c(=O)c3c2CN(C)C[C@H]2CCCN2)c1` [Compound A-16, 6-(3,5-dimethylphenyl)-3-(3-hydroxyphenyl)-5-({methyl[(2R)-pyrrolidin-2-ylmethyl]amino}methyl)-3H,4H-pyrido[2,3-d]pyrimidin-4-one], the EC50 at SSTR5 was greater than 10000 nM; at SSTR3, less than 100 nM; on SSTR4, less than 100 nM; at SSTR1, greater than 10000 nM.

Consider `Cc1cc(C)cc(-c2cnc3ncn(-c4cccc(O)c4)c(=O)c3c2CN(C)C[C@@H]2CCCN2)c1` [Compound A-17, 6-(3,5-dimethylphenyl)-3-(3-hydroxyphenyl)-5-({methyl[(2S)-pyrrolidin-2-ylmethyl]amino}methyl)-3H,4H-pyrido[2,3-d]pyrimidin-4-one], for which the EC50 at SSTR3 is less than 100 nM; on SSTR4 it was less than 100 nM; on SSTR1, 100 to 10000 nM.

In the case of `Cc1cc(C)cc(-c2cnc3ncn(-c4cccc(O)c4)c(=O)c3c2CN(C)C[C@@H]2CCN2)c1` [Compound A-18, 5-({[(2S)-azetidin-2-ylmethyl](methyl)amino}methyl)-6-(3,5-dimethylphenyl)-3-(3-hydroxyphenyl)-3H,4H-pyrido[2,3-d]pyrimidin-4-one], the EC50 is 100 to 10000 nM on SSTR3, less than 100 nM at SSTR4 and 100 to 10000 nM on SSTR1.

`Cc1cc(C)cc(-c2cnc3ncn(-c4cccc(O)c4)c(=O)c3c2CN(C)CC2COCCN2)c1` (stereo not drawn) [Compound A-19, 6-(3,5-dimethylphenyl)-3-(3-hydroxyphenyl)-5-{[methyl(morpholin-3-ylmethyl)amino]methyl}-3H,4H-pyrido[2,3-d]pyrimidin-4-one]: the EC50 at SSTR5 was greater than 10000 nM; on SSTR3, less than 100 nM; on SSTR4 it was less than 100 nM.

Regarding `Cc1cc(Cl)cc(-c2cnc3ncn(-c4cccc(O)c4)c(=O)c3c2CN(C)C[C@@H]2CCCN2)c1` [Compound A-30, 6-(3-chloro-5-methylphenyl)-3-(3-hydroxyphenyl)-5-({methyl[(2S)-pyrrolidin-2-ylmethyl]amino}methyl)-3H,4H-pyrido[2,3-d]pyrimidin-4-one], the EC50 at SSTR5 was 100 to 10000 nM; on SSTR3, less than 100 nM; at SSTR4 it was less than 100 nM; on SSTR1 it was 100 to 10000 nM.

In the case of `COc1cccc(-n2cnc3ncc(-c4cc(C)cc(C)c4)c(CN(C)C[C@@H]4CCCN4)c3c2=O)c1` [Compound A-33, 6-(3,5-dimethylphenyl)-3-(3-methoxyphenyl)-5-({methyl[(2S)-pyrrolidin-2-ylmethyl]amino}methyl)-3H,4H-pyrido[2,3-d]pyrimidin-4-one], the EC50 at SSTR3 is 100 to 10000 nM; at SSTR4 it was less than 100 nM.

Regarding `Cc1cc(C)cc(-c2cnc3ncn(-c4cccc(CO)c4)c(=O)c3c2CN(C)C[C@@H]2CCCN2)c1` [Compound A-40, 6-(3,5-dimethylphenyl)-3-[3-(hydroxymethyl)phenyl]-5-({methyl[(2S)-pyrrolidin-2-ylmethyl]amino}methyl)-3H,4H-pyrido[2,3-d]pyrimidin-4-one], the EC50 is 100 to 10000 nM on SSTR3 and less than 100 nM on SSTR4.

With `Cc1cc(C)cc(-c2cnc3ncn(-c4ccc(O)cc4)c(=O)c3c2CN(C)C[C@@H]2CCCN2)c1` [Compound A-41, 6-(3,5-dimethylphenyl)-3-(4-hydroxyphenyl)-5-({methyl[(2S)-pyrrolidin-2-ylmethyl]amino}methyl)-3H,4H-pyrido[2,3-d]pyrimidin-4-one], the results for the EC50 on SSTR3 and at SSTR4 were 100 to 10000 nM and less than 100 nM, respectively.

On to `CNC(=O)c1cccc(-n2cnc3ncc(-c4cc(C)cc(C)c4)c(CN(C)C[C@@H]4CCCN4)c3c2=O)c1` [Compound A-43, 3-[6-(3,5-dimethylphenyl)-5-({methyl[(2S)-pyrrolidin-2-ylmethyl]amino}methyl)-4-oxo-3H,4H-pyrido[2,3-d]pyrimidin-3-yl]-N-methylbenzamide], for which the results for the EC50 at SSTR3 and at SSTR4 were 100 to 10000 nM and less than 100 nM, respectively.

As to `Cc1cc(Cl)cc(-c2cnc3ncn(-c4cc(O)cc(F)c4)c(=O)c3c2CN(C)C[C@@H]2CCCN2)c1` [Compound A-47, 6-(3-chloro-5-methylphenyl)-3-(3-fluoro-5-hydroxyphenyl)-5-({methyl[(2S)-pyrrolidin-2-ylmethyl]amino}methyl)-3H,4H-pyrido[2,3-d]pyrimidin-4-one], the EC50 is 100 to 10000 nM on SSTR5, less than 100 nM on SSTR3 and 100 to 10000 nM at SSTR1 (setting [1]).

Consider `Cc1cc(Cl)cc(-c2cnc3ncn(-c4cc(O)cc(F)c4)c(=O)c3c2CN(C)C[C@H]2CCCN2)c1` [Compound A-53, 6-(3-chloro-5-methylphenyl)-3-(3-fluoro-5-hydroxyphenyl)-5-({methyl[(2R)-pyrrolidin-2-ylmethyl]amino}methyl)-3H,4H-pyrido[2,3-d]pyrimidin-4-one], for which the EC50 was greater than 10000 nM on SSTR5, less than 100 nM at SSTR3 and 100 to 10000 nM at SSTR1 (setting [1]).
